Reference: patent publication US8940911B2, “Squarylated lactones inhibitors for bacterial biofilm formation” (Syracuse University, priority 2012, dated 2015)

What was measured:
E. coli RP437 = experiment: Static biofilm dispersion assay (established biofilm, crystal violet); assay type: cell-based, Escherichia coli; settings: established 24 h E. coli RP437 biofilm, 200 μM, further 24 h
Description: Apart from the design and development of molecules that display bacterial biofilm inhibition, perhaps the greater challenge is to construct small molecules that will effectively disperse established biofilm. Generally, treatment of chronic microbial infections is commonly hindered by the presence of established biofilms that offer increased resistance to the entry of antibiotics and prevent their mode of action. In fact, bacteria in the biofilms are known to be greater than 1000-fold resistant to microbicides. […] E. coli RP437 strain was allowed to form biofilms over 24 h in the absence of any inhibitor. […]
An overnight culture of E. coli RP437 grown in LB media (OD600 of 1.0) containing streptomycin (10 μg/mL) was subsequently sub-cultured to an OD600 of 0.03-0.04 (1:100 dilution with LB media). […] Finally, the biofilm formed was quantified by transferring 100 μL of the ethanol solution into a fresh polystyrene microtiter dish that was subsequently read by an absorbance plate reader (A600). After elimination of background absorbance, the percentage dispersion was calculated by dividing the amount of absorbed crystal violet in wells that contained the synthetic compound by the amount of absorbed crystal violet in wells that contained bacteria only (control). […]

[1] = tested on: DsRed-express-labeled E. coli RP437; experiment: Confocal imaging of E. coli biofilms on stainless steel coupons (COMSTAT); assay type: cell-based, Escherichia coli; settings: 200 μM, 24 h at 37° C., CLSM/COMSTAT
Procedure: The effects of SHLs upon the bacterial biofilm were examined; more specifically, the effect of SHLs upon the biofilm architecture. […] These studies were conducted by static biofilm assays employing crystal violet staining that indicates the total biomass that resides within a biofilm but provides no indication regarding the topology of the biofilms. To elucidate the topological features assumed by the E. coli RP437 biofilm in the presence of SHLs and BF8 48, studies of biofilms consisting of DsRed-express-labeled E. coli RP437 that is fluorescent and can be easily visualized by confocal laser scanning microscopy (CLSM) were performed. […] Further, the stacked images in vinyl-SHL 3 indicating the maximum thickness of the biofilm is considerably smaller than the biofilms in BF8 48 and the untreated E. coli samples. We developed the biofilms consisting of DsRed-express-labeled E. coli on stainless steel coupons (316 L, 1 in×1 in.) for 24 h at 37° C. that were treated with BF8 48 or SHLs or were left untreated. All the samples were analyzed with CLSM (see FIG. 8) and the maximum thickness of biofilms calculated using the COMSTAT software. […] Moreover, butyl-SHL 8 and butoxy-SCPA 46 reduce the biofilm thickness by 38% and 27%, respectively.
An overnight culture of E. coli RP437 pRSH103 grown in LB media (OD600 of 1.0) containing tetracycline (3 μg/mL) was subsequently sub-cultured to an OD600 of 0.04 (1:100 dilution with LB media). To each well in the solvent resistant polypropylene or polystyrene-based 24-well microtiter plates was added 200 μM synthetic molecules in DMSO solution respectively. In addition, to each of the wells containing the known concentrations of synthetic molecules was added 2 mL of the sub-cultured bacteria and the contents in each well were gently mixed. […] The fluorescent emission was detected with a LP 560 nm emission filter. The coupons were gently placed upside down on a microscope cover glass (24×60 mm, No. 2, VWR International LLC, West Chester, Pa., USA) and analyzed with CLSM. […]

Compound | biofilm dispersal ability (E. coli RP437) | reduction of the maximum thickness of biofilm [1] | biofilm dispersal (in words) (E. coli RP437)
CC1=C(Br)/C(=C/Br)OC1=O [BF8 48, reference compound] | 39% | 17% | 
CCCCOc1c(NC2CCCC2)c(=O)c1=O [butoxy-SCPA 46] |  | 27% | 
C=Cc1c(NC2CCOC2=O)c(=O)c1=O (stereo not shown) [vinyl-SHL 3] |  |  | a quarter of biofilm being dispersed
